{"source": "patent US10980765B2", "about": "“Isothiocyanatostilbenes as a novel method and product for treating cancer” (BOARD OF SUPERVISORS OF LOUISIANA STATE UNIVERSITY AND …, priority 2015, dated 2021)", "key": {"[1]": {"target": "T1, c-Met (Homo sapiens, UniProt P08581)", "T1 sequence (P08581 25-1390)": "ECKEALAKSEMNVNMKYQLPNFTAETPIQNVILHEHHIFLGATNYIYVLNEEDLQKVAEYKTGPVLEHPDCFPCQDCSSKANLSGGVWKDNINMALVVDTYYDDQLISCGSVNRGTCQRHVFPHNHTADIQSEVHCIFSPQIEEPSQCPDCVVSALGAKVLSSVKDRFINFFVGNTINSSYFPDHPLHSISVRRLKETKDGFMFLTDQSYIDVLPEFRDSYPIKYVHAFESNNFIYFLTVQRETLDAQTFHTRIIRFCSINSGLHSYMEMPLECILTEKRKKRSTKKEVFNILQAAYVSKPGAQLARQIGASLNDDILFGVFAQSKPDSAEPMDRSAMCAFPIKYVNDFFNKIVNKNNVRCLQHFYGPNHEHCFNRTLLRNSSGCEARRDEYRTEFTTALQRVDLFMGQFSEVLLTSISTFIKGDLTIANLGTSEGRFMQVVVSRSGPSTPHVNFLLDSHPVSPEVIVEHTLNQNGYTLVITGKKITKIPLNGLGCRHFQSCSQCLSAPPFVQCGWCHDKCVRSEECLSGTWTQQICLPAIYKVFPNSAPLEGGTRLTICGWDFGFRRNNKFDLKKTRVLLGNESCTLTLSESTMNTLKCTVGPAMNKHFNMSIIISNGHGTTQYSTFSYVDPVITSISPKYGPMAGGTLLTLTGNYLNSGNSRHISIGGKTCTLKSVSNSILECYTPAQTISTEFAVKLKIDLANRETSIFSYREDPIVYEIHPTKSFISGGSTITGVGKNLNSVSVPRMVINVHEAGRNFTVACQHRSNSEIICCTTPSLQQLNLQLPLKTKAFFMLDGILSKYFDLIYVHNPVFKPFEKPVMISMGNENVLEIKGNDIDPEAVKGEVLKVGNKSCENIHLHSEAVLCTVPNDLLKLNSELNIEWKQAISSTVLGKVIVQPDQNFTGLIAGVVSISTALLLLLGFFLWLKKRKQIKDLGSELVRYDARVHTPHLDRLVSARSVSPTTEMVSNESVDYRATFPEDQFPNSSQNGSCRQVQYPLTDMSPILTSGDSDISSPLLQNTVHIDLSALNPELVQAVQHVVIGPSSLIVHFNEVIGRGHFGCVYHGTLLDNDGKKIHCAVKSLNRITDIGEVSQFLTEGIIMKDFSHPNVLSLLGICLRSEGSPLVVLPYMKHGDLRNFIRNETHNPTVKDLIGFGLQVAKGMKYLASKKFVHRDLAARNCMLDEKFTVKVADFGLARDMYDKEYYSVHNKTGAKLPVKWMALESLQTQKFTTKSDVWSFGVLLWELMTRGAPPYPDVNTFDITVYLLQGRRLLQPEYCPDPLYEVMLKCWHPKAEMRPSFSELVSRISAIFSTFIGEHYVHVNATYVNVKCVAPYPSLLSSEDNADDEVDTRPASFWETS", "assay": "Western blot of c-Met activation (phospho-c-Met) by HGF in cancer cell lines", "format": "cell-based", "set-up": "endogenous in cells; host or cells: DU145, PC3, MDA-MB-231, HCC1806", "protocol": "(§1) Western blot was used to analyze pMet expression. […] Western blot was used to analyze the indicated proteins.\n(§2) Western blot was used to analyze the indicated proteins.\nas §2\n(§3) Western blot analysis: Cells were grown to ˜70% confluency prior to treatment. Cells were serum-starved in serum-free media for 30 minutes prior to treatment in complete media or serum-free media for the indicated times. Cell lysates were collected in Laemmli (125 mM Tris, 4% SDS, 0.01% bromophenol blue, 30% sucrose) containing 0.5% β-mercaptoethanol and boiled ˜8 minutes. Primary antibodies include: phospho-c-Met (Y1234/1235), phospho-Akt (S473), pEGFR […], pIGF-IRβ (Y1135/1136) (Cell Signaling Technology; Beverly, Mass.); α-actin (Sigma-Aldrich), c-Met (C-28) (Life Technologies). Secondary antibodies include: horseradish peroxidase-conjugated anti-rabbit and anti-mouse (GE Healthcare; Pittsburgh, Pa.). ECL 2 was used for chemiluminescent detection (Thermo Scientific; Rockford, Ill.). Densitometry was calculated using ImageJ (NIH)."}, "[2]": {"test_system": "DU145 cells", "assay": "Invasion through Matrigel", "format": "cell-based", "conditions": "indicated concentrations; 33 ng/mL HGF; Matrigel 1:5", "protocol": "(§4) For invasion (FIGS. 4C and 4D), wounded cells were overlaid with Matrigel diluted 1:5 in serum-free media; n=3.\n(§5) Wound healing and invasion: DU145 cells were grown to ˜100% confluency prior to wounding with the IncuCyte™ WoundMaker™ (Essen Bioscience; Ann Arbor, Mich.) and washed once with complete media. For invasion, cells were covered with Matrigel diluted 1:5 in serum-free RPMI following wounding. […] Images were taken every 4 hours with the IncuCyte™ ZOOM imaging system (Essen Bioscience). Quadruplicate replicates were used in each experiment. Data are presented as percent wound density ±standard error of the mean (S.E.M.)."}, "[3]": {"target": "T2, IGFR (Homo sapiens, UniProt P08069)", "T2 construct": "endogenous in cells; host or cells: DU145", "T2 sequence (P08069 31-1367)": "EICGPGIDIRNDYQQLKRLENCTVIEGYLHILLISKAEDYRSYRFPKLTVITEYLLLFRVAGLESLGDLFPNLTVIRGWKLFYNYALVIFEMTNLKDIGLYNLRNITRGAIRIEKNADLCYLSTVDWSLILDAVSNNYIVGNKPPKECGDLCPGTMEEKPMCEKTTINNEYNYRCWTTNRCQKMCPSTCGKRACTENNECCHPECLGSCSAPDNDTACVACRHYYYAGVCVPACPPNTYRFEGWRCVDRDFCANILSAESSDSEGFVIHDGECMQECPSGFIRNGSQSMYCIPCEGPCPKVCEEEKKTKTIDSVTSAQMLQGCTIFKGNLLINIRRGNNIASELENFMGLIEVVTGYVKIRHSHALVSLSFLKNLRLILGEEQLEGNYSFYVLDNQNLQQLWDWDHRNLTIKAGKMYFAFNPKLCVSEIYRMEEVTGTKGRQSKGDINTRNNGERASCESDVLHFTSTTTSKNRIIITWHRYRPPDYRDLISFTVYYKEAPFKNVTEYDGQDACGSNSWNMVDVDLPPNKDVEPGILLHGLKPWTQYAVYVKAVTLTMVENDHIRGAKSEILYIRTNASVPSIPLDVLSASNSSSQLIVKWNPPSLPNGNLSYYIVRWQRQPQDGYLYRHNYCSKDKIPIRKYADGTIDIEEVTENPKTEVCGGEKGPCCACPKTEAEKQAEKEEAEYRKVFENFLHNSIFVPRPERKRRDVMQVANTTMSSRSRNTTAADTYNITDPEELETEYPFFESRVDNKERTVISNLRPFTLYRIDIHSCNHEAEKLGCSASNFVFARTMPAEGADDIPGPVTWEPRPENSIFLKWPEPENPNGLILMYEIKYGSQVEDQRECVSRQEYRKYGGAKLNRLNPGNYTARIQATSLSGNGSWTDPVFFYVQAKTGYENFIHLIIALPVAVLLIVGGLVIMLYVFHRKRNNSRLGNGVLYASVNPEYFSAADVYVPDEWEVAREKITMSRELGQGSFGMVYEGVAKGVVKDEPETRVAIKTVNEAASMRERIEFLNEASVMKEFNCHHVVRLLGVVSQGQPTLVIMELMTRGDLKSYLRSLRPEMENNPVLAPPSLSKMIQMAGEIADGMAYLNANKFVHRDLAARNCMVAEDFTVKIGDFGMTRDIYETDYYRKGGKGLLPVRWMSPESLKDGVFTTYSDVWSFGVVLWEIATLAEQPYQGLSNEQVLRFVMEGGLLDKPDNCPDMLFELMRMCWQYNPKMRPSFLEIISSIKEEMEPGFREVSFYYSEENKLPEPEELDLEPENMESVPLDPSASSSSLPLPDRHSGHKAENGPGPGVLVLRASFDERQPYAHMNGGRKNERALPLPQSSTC", "assay": "Western blot of IGFR activation by IGF in DU145 cells", "format": "cell-based", "conditions": "4 μM DIDS or 25 μM H2DIDS; DU145, 100 ng/ml IGF 20 min", "protocol": "as §3"}, "[4]": {"test_system": "DU145 cells", "assay": "Wound healing", "format": "cell-based", "protocol": "(§6) Cells were fixed and stained for actin. Representative images are shown. […] Data are shown as mean±S.E.M.; n=3.\nas §4, §5"}, "[5]": {"test_system": "Cells", "assay": "2D proliferation (Cell Titer Blue)", "format": "cell-based", "conditions": "24-72 hours", "protocol": "A TO timepoint was also measured. For each timepoint, cells were exposed to Cell Titer Blue reagent (Promega) for 1 hour at 37° C. 5% CO2. Experiments were performed with quadruplicate replicates. Fluorescence was measured using a BioTek Synergy 4 plate reader with Gen5 software."}, "[6]": {"test_system": "DU145 spheroids", "assay": "3D spheroid proliferation", "format": "cell-based", "conditions": "33 ng/mL HGF, Matrigel, 72 hours", "protocol": "Data are shown as the percent change in growth from T=0 to T=72 hours. For each of the six independent variables in each bar graph, a representative image at the 72 hour time point is shown. The six corresponding images below each respective bar graph\n3D spheroid proliferation: Prior to seeding, cells were incubated with 2.5 ng/μl CellTracker Red (Life Technologies) in complete DMEM lacking Phenol Red for 5 minutes at room temperature then centrifuged at 1000 RPM for 5 minutes. […] The mixture of cells, treatments, and Matrigel in complete media was seeded at 2000 cells/well in a 96 well plate. The plate was centrifuged at 1000 RPM for 3 minutes to collect the cells into the bottom of the plate. Spheroid growth was imaged for up to 80 hours and analyzed for average red object area using the IncuCyte™ ZOOM software. Data are shown as percent change in spheroid growth between TO and […] with HGF normalized to 100% change in growth. Images were captured by the IncuCyte™ ZOOM imaging system and representative 10× images are shown."}, "[7]": {"target": "wild-type c-Met (Homo sapiens, UniProt P08581)", "sequence (P08581 25-1390)": "as the sequence (P08581 25-1390) above", "assay": "Phosphorylation inhibition assay (Z′-LYTE Kinase Assay-Tyr6 Peptide), wild-type c-Met", "format": "biochemical", "protocol": "as §1\nPhosphorylation inhibition assay: Z′-LYTE™ Kinase Assay-Tyr6 Peptide kit (Invitrogen) was used to assess the ability of tested compounds to inhibit c-Met phosphorylation. […] After 1 hour incubation at room temperature, 10 μl development solution containing site-specific protease was added to each well. Incubation was continued for 1 hour. The reaction was then stopped, and the fluorescent signal ratio of 445 nm (coumarin)/520 nm (fluorescein) was determined on a plate reader (BioTek FLx800™), which reflects the peptide substrate cleavage status and/or the kinase inhibitory activity in the reaction. […] The IC50 value for each compound was calculated by nonlinear regression of log concentration versus % c-Met phosphorylation ±S.E.M., implemented in GraphPad Prism version 5.0 (GraphPad Software, CA, USA)."}, "[8]": {"target": "T3, EGFR (Homo sapiens, UniProt P00533)", "T3 construct": "endogenous in cells; host or cells: DU145", "assay": "Western blot of EGFR activation by EGF in DU145 cells", "format": "cell-based", "conditions": "4 μM DIDS or 25 μM H2DIDS; DU145, 100 ng/ml EGF 20 min", "protocol": "as §3"}, "[9]": {"test_system": "DU145 cells", "assay": "Scattering assay", "format": "cell-based", "conditions": "4 μM DIDS or 25 μM H2DIDS", "protocol": "as §6\nCells were fixed and stained for actin. Representative images are shown.\nScattering assay: DU145 cells were grown to ˜50% confluency. […] Cells were fixed with 4% paraformaldehyde and stained with Oregon Green 488 phalloidin (Invitrogen; Carlsbad, Calif.). Images were acquired on an Eclipse TE300 inverted microscope (Nikon; Tokyo, Japan) with NIS Elements version 4.13.04 software. Presented images were taken using a 10× objective."}, "[10]": {"target": "T1, c-Met", "assay": "Western blot of pMet in c-Met amplified H1993 lung cancer cells without HGF", "format": "cell-based", "set-up": "endogenous in cells", "conditions": "5 μM compound; no HGF, constitutive c-Met activation", "protocol": "as §1\nH1993 cells have c-Met amplification such that they have high levels of pMet, even in the absence of HGF, due to constitutive c-Met dimerization and autophosphorylation.\nas §3"}}}
{"molecule": "O=[N+]([O-])c1ccc(C=Cc2ccc([N+](=O)[O-])cc2S(=O)(=O)O)c(S(=O)(=O)O)c1", "note": "[DNDS, 4,4′-dinitrostilbene-2,2′-disulfonic acid]", "values": [{"measurement": "inhibition at 2000 µM", "setting": "[1]; DU-145, read-out: inhibition of c-Met", "value": "~90", "unit": "%"}]}
{"molecule": "O=S(=O)(O)c1cc(N=C=S)ccc1CCc1ccc(N=C=S)cc1S(=O)(=O)O", "note": "[H2DIDS, 4,4′-Diisothiocyanatodihydrostilbene-2,2′-disulfonic acid]", "values": [{"measurement": "HGF-induced invasion through Matrigel", "setting": "[2]", "value": "inhibited HGF-induced invasion through Matrigel in a dose-dependent manner"}, {"measurement": "IGFR activation", "setting": "[3]", "value": "do not significantly reduce"}, {"measurement": "HGF-induced wound healing", "setting": "[4]; 4 μM DIDS or 25 μM H2DIDS, 33 ng/ml HGF", "value": "significantly reduced"}, {"measurement": "EGF-mediated wound healing", "setting": "[4]; 4 μM DIDS or 25 μM H2DIDS, 100 ng/ml EGF", "value": "minimal effects"}, {"measurement": "HGF-induced wound healing, dose response", "setting": "[4]; indicated concentrations, 33 ng/mL HGF", "value": "reduce HGF-induced wound healing in a dose response manner"}, {"measurement": "proliferation in complete media in 2D assay", "setting": "[5]; complete media", "value": "minimal effects"}, {"measurement": "serum-free proliferation in 2D assay", "setting": "[5]; serum-free media", "value": "minimal effects"}, {"measurement": "lowest concentration with some inhibitory effects on HGF-induced spheroid growth", "setting": "[6]", "value": 40, "unit": "nM"}, {"measurement": "decrease of HGF-induced DU145 spheroid growth", "setting": "[6]; 5 μM compound", "value": "~60", "unit": "%"}, {"measurement": "IC50, wild-type c-Met", "setting": "[7]; cell-free kinase assay, 200 μM ATP", "value": "low micromolar range"}, {"measurement": "IC50", "setting": "[7]; cell-free kinase assay, 200 μM ATP, read-out: IC50, wild-type c-Met", "value": 3.6, "unit": "µM"}, {"measurement": "EGFR activation", "setting": "[8]", "value": "do not significantly reduce"}, {"measurement": "HGF-induced cell scattering", "setting": "[9]; 33 ng/ml HGF overnight", "value": "able to reduce HGF-induced"}, {"measurement": "EGF-induced cell scattering", "setting": "[9]; 100 ng/ml EGF overnight", "value": "not EGF-induced"}, {"measurement": "reduction of c-Met activation", "setting": "[1]; 8 μM compound, DU145 cells, 33 ng/ml HGF 20 min, serum-free, Western blot densitometry", "value": "~90", "unit": "%"}, {"measurement": "effective concentrations for reducing c-Met activation in 10% FBS", "setting": "[1]; DU145 cells, 33 ng/ml HGF 20 min, 10% FBS RPMI, compared with serum-free", "value": "slightly higher effective concentrations"}, {"measurement": "c-Met inhibitory effective doses", "setting": "[1]; multiple cancer cell lines (summary)", "value": "low micromolar range"}, {"measurement": "pMet levels in H1993 cells", "setting": "[10]", "value": "much less significant effects"}]}
{"molecule": "CC(=O)Nc1ccc(C=Cc2ccc(N=C=S)cc2S(=O)(=O)O)c(S(=O)(=O)O)c1", "note": "[SITS, 4-acetamido-4′-isothiocyanatostilbene-2,2′-disulfonic acid]", "values": [{"measurement": "inhibition at 250 µM", "setting": "[1]; DU-145, 250 μM compound, DU145 cells, 33 ng/ml HGF 20 min, serum-free", "value": "~90", "unit": "%"}]}
{"molecule": "Cc1[nH]c(/C=C2\\C(=O)Nc3ccc(S(=O)(=O)N(C)c4cccc(Cl)c4)cc32)c(C)c1C(=O)N1CCN(C)CC1", "note": "[SU11274, reference compound]", "values": [{"measurement": "reduction of c-Met phosphorylation", "setting": "[7]; 500 nM compound, kinase assay", "value": "~70", "unit": "%"}, {"measurement": "pMet levels in H1993 cells", "setting": "[10]", "value": "ameliorated pMet levels"}]}
